pIC50: −log10 of the molar value. Active and inactive are the calls of the source. The rule behind the calls is not given here.
Key:
[1] = system: SGC-7901; assay: Antiproliferative activity against human SGC7901 cells after 72 hrs by MTT assay; format: functional, cell-based; conditions: SGC-7901, 72 h
[2] = system: HeLa; assay: Antiproliferative activity against human HeLa cells after 72 hrs by MTT assay; format: functional, cell-based
[3] = Antiproliferative activity against human U87 cells after 72 hrs by MTT assay; format: functional, cell-based, U-87MG ATCC; conditions: U-87 MG
[4] = Induction of NO production at 100 uM in presence of 5.0 mM L-cysteine incubated for 120 mins measured every 15 mins by Griess assay
[5] = system: H22; assay: Antitumor activity against […] cells xenografted in ICR mouse assessed as tumor growth inhibition at 60 mg/kg, iv qd for 3 weeks relative to control; format: functional; conditions: 504 h, read-out: TGI
[6] = system: Mus musculus; assay: Toxicity in ICR mouse xenografted with […] cells assessed as body weight at 60 mg/kg, iv administered qd for 3 weeks (reference value: 22.9 +/- 0.4 g); format: organism-based; conditions: in vivo, 504 h
[7] = species: Homo sapiens; assay: Inhibition of PI3K/Akt activation in human U87 cells assessed as decrease in Bcl-2 protein expression after 72 hrs by Western blot method; format: cell-based
[8] = system: L02; assay: Cytotoxicity against human LO2 cells assessed as reduction in cell viability after 72 hrs by MTT assay; format: cell-based; conditions: L02, 72 h
[9] = system: U-87MG ATCC; assay: Antiproliferative activity against human U87 cells after 72 hrs in presence of NO scavenger hemoglobin/PTIO by MTT assay; format: functional, cell-based
[10] = Cell cycle arrest in human U87 cells assessed as accumulation at G1 phase at 0.5 nM after 72 hrs by propidium iodide staining based flow cytometry (reference value: 54.11%); format: functional, U-87MG ATCC
[11] = Cell cycle arrest in human U87 cells assessed as accumulation at G1 phase at 1 nM after 72 hrs by propidium iodide staining based flow cytometry (reference value: 54.11%); format: functional, U-87MG ATCC
[12] = Cell cycle arrest in human U87 cells assessed as accumulation at G1 phase at 2 nM after 72 hrs by propidium iodide staining based flow cytometry (reference value: 54.11%); format: functional, U-87MG ATCC
[13] = Cell cycle arrest in human U87 cells assessed as accumulation at G2 phase at 0.5 nM after 72 hrs by propidium iodide staining based flow cytometry (reference value: 18.86%); format: functional, U-87MG ATCC
[14] = Cell cycle arrest in human U87 cells assessed as accumulation at G2 phase at 1 nM after 72 hrs by propidium iodide staining based flow cytometry (reference value: 18.86%); format: functional, U-87MG ATCC
[15] = Cell cycle arrest in human U87 cells assessed as accumulation at G2 phase at 2 nM after 72 hrs by propidium iodide staining based flow cytometry (reference value: 18.86%); format: functional, U-87MG ATCC
[16] = Cell cycle arrest in human U87 cells assessed as accumulation at S phase at 0.5 nM after 72 hrs by propidium iodide staining based flow cytometry (reference value: 27.03%); format: functional, U-87MG ATCC
[17] = Cell cycle arrest in human U87 cells assessed as accumulation at S phase at 1 nM after 72 hrs by propidium iodide staining based flow cytometry (reference value: 27.03%); format: functional, U-87MG ATCC
[18] = Cell cycle arrest in human U87 cells assessed as accumulation at S phase at 2 nM after 72 hrs by propidium iodide staining based flow cytometry (reference value: 27.03%); format: functional, U-87MG ATCC
[19] = Induction of apoptosis in human U87 cells assessed as viable cells at 0.5 nM measured after 72 hrs by Annexin V-APC/7-AAD staining based flow cytometry (reference value: 92.71%); format: functional, U-87MG ATCC; conditions: U-87 MG, read-out: Activity
[20] = Induction of apoptosis in human U87 cells assessed as viable cells at 1 nM measured after 72 hrs by Annexin V-APC/7-AAD staining based flow cytometry (reference value: 92.71%); format: functional, U-87MG ATCC; conditions: U-87 MG, read-out: Activity
[21] = Induction of apoptosis in human U87 cells assessed as viable cells at 2 nM measured after 72 hrs by Annexin V-APC/7-AAD staining based flow cytometry (reference value: 92.71%); format: functional, U-87MG ATCC; conditions: U-87 MG, read-out: Activity
[22] = Induction of apoptosis in human U87 cells assessed as early apoptotic cells at 0.5 nM measured after 72 hrs by Annexin V-APC/7-AAD staining based flow cytometry (reference value: 3.82%); format: functional, U-87MG ATCC
[23] = Induction of apoptosis in human U87 cells assessed as early apoptotic cells at 1 nM measured after 72 hrs by Annexin V-APC/7-AAD staining based flow cytometry (reference value: 3.82%); format: functional, U-87MG ATCC
[24] = Induction of apoptosis in human U87 cells assessed as early apoptotic cells at 2 nM measured after 72 hrs by Annexin V-APC/7-AAD staining based flow cytometry (reference value: 3.82%); format: functional, U-87MG ATCC
[25] = Induction of apoptosis in human U87 cells assessed as late apoptotic cells at 0.5 nM measured after 72 hrs by Annexin V-APC/7-AAD staining based flow cytometry (reference value: 3.02%); format: functional, U-87MG ATCC
[26] = Induction of apoptosis in human U87 cells assessed as late apoptotic cells at 1 nM measured after 72 hrs by Annexin V-APC/7-AAD staining based flow cytometry (reference value: 3.02%); format: functional, U-87MG ATCC
[27] = Induction of apoptosis in human U87 cells assessed as late apoptotic cells at 2 nM measured after 72 hrs by Annexin V-APC/7-AAD staining based flow cytometry (reference value: 3.02%); format: functional, U-87MG ATCC
[28] = Induction of apoptosis in human U87 cells assessed as necrotic cells at 0.5 nM measured after 72 hrs by Annexin V-APC/7-AAD staining based flow cytometry (reference value: 0.44%); format: functional, U-87MG ATCC
[29] = Induction of apoptosis in human U87 cells assessed as necrotic cells at 1 nM measured after 72 hrs by Annexin V-APC/7-AAD staining based flow cytometry (reference value: 0.44%); format: functional, U-87MG ATCC
[30] = Induction of apoptosis in human U87 cells assessed as necrotic cells at 2 nM measured after 72 hrs by Annexin V-APC/7-AAD staining based flow cytometry (reference value: 0.44%); format: functional, U-87MG ATCC
[31] = species: Homo sapiens; assay: Inhibition of PI3K/Akt activation in human U87 cells assessed as increase in pro-apoptotic Bax protein expression after 72 hrs by Western blot method; format: cell-based
[32] = species: Homo sapiens; assay: Inhibition of PI3K/Akt activation in human U87 cells assessed as increase in caspase-3 level after 72 hrs by Western blot method; format: cell-based
[33] = biological target: RAC-alpha serine/threonine-protein kinase (Homo sapiens) (UniProt P31749); assay: Inhibition of Akt phosphorylation in human U87 cells after 72 hrs by Western blot method; format: cell-based
[34] = system: H22; assay: Antitumor activity against […] cells xenografted in ICR mouse assessed as tumor growth inhibition at 30 mg/kg, iv qd for 3 weeks relative to control; format: functional; conditions: 504 h, read-out: TGI
[35] = system: H22; assay: Antitumor activity against […] cells xenografted in iv dosed ICR mouse assessed as tumor growth inhibition administered qd for 3 weeks; format: functional, organism-based
[36] = system: Mus musculus; assay: Toxicity in ICR mouse xenografted with […] cells assessed as body weight at 30 mg/kg, iv administered qd for 3 weeks (reference value: 22.9 +/- 0.4 g); format: organism-based; conditions: in vivo, 504 h

Chain of RAC-alpha serine/threonine-protein kinase (Homo sapiens) (P31749 whole entry): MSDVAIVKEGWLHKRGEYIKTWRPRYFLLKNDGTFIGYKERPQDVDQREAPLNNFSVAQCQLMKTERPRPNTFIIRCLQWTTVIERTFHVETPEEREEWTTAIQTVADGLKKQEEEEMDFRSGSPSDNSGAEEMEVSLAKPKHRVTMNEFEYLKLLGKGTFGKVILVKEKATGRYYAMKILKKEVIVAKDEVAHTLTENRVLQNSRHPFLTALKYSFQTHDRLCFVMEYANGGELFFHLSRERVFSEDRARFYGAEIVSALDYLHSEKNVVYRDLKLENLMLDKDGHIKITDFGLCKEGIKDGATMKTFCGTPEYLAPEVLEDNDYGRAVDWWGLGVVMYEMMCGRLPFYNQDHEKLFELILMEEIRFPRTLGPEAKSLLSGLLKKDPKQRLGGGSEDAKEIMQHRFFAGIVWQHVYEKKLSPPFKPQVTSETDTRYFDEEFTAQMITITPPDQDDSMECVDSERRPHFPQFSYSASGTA

C=C[C@]1(C)CC[C@@H](C(=C)COC(=O)[C@H](Cc2ccccc2)NC(=O)CCC(=O)OCCCCOc2no[n+]([O-])c2S(=O)(=O)c2ccccc2)C[C@H]1C(=C)C
pIC50 [1]: 5.00 | pIC50 [2]: 4.97 | pIC50 [3]: 7.21

C=C[C@]1(C)CC[C@@H](C(=C)COC(=O)[C@H](C)NC(=O)CCC(=O)OCCCCOc2no[n+]([O-])c2S(=O)(=O)c2ccccc2)C[C@H]1C(=C)C
pIC50 [1]: 4.93 | pIC50 [2]: 4.96 | pIC50 [3]: 6.94

C=C[C@]1(C)CC[C@@H](C(=C)COC(=O)CCC(=O)OCCOCCOc2no[n+]([O-])c2S(=O)(=O)c2ccccc2)C[C@H]1C(=C)C
pIC50 [1]: 5.33 | pIC50 [2]: 5.24 | pIC50 [3]: 7.62

C=C[C@]1(C)CC[C@@H](C(=C)COC(=O)c2ccccc2C(=O)OCCCCOc2no[n+]([O-])c2S(=O)(=O)c2ccccc2)C[C@H]1C(=C)C
pIC50 [1]: 4.56 | pIC50 [2]: 4.66 | pIC50 [3]: 7.09 | Activity [4]: inactive

C=C[C@]1(C)CC[C@@H](C(=C)COC(=O)CCC(=O)OCCCCOc2no[n+]([O-])c2S(=O)(=O)c2ccccc2)C[C@H]1C(=C)C
pIC50 [1]: 5.06 | pIC50 [2]: 4.96 | pIC50 [3]: 8.15

C=C[C@]1(C)CC[C@@H](C(=C)C)C[C@H]1C(=C)C
pIC50 [1]: 3.63 | pIC50 [2]: 3.67 | pIC50 [3]: 3.75 | inhibition in vivo at 60 mg/kg [5]: 49.6% | Activity [6]: 20 g

C=C[C@]1(C)CC[C@@H](C(=C)COC(=O)CCC(=O)OCCOc2no[n+]([O-])c2S(=O)(=O)c2ccccc2)C[C@H]1C(=C)C
inhibition [7]: Dose-dependent effect | pIC50 [1]: 5.50 | pIC50 [2]: 5.31 | pIC50 [3]: 8.70 | pIC50 [8]: 4.52 | Activity [4]: Active | Activity [9]: Dose-dependent effect | Activity [10]: 50.4% | Activity [11]: 34.97% | Activity [12]: 26.96% | Activity [13]: 22.91% | Activity [14]: 33.35% | Activity [15]: 47.99% | Activity [16]: 26.69% | Activity [17]: 31.68% | Activity [18]: 25.04% | viability at 0.0005 µM [19]: 80.4% | viability at 0.001 µM [20]: 64.9% | viability at 0.002 µM [21]: 46% | Activity [22]: 8.16% | Activity [23]: 25.03% | Activity [24]: 34.63% | Activity [25]: 10.16% | Activity [26]: 9.91% | Activity [27]: 19.07% | Activity [28]: 1.25% | Activity [29]: 0.19% | Activity [30]: 0.25% | inhibition [31]: Dose-dependent effect | inhibition [32]: Dose-dependent effect | inhibition [33]: Dose-dependent effect | inhibition in vivo at 30 mg/kg [34]: 50.2% | inhibition in vivo at 60 mg/kg [5]: 64.8% | TGI [35]: Dose-dependent effect | Activity [6]: 20.9 g | Activity [36]: 21.6 g

C=C[C@]1(C)CC[C@@H](C(=C)COC(=O)CCNC(=O)CCC(=O)OCCCCOc2no[n+]([O-])c2S(=O)(=O)c2ccccc2)C[C@H]1C(=C)C
pIC50 [1]: 5.11 | pIC50 [2]: 5.05 | pIC50 [3]: 7.24

C=C[C@]1(C)CC[C@@H](C(=C)COC(=O)CCC(=O)OCCCCCCOc2no[n+]([O-])c2S(=O)(=O)c2ccccc2)C[C@H]1C(=C)C
pIC50 [1]: 4.64 | pIC50 [2]: 4.64 | pIC50 [3]: 6.81 | Activity [4]: inactive

C=C[C@]1(C)CC[C@@H](C(=C)COC(=O)[C@@H]2CCCN2C(=O)CCC(=O)OCCCCOc2no[n+]([O-])c2S(=O)(=O)c2ccccc2)C[C@H]1C(=C)C
pIC50 [1]: 5.02 | pIC50 [2]: 4.95 | pIC50 [3]: 7.26

C=C[C@]1(C)CC[C@@H](C(=C)CO)C[C@H]1C(=C)C
pIC50 [3]: 3.70

O=C(O)CCC(=O)OCCOc1c(S(=O)(=O)c2ccccc2)no[n+]1[O-]
pIC50 [3]: 4.49

C=C[C@]1(C)CC[C@@H](C(=C)COC(=O)[C@@H](N)CC(=O)OCCCCOc2no[n+]([O-])c2S(=O)(=O)c2ccccc2)C[C@H]1C(=C)C
pIC50 [1]: 5.53 | pIC50 [2]: 5.44 | pIC50 [3]: 6.91 | Activity [4]: Active

C=C[C@]1(C)CC[C@@H](C(=C)COC(=O)CNC(=O)CCC(=O)OCCCCOc2no[n+]([O-])c2S(=O)(=O)c2ccccc2)C[C@H]1C(=C)C
pIC50 [1]: 4.82 | pIC50 [2]: 4.99 | pIC50 [3]: 6.76

C=C[C@]1(C)CC[C@@H](C(=C)COC(=O)[C@@H](NC(=O)CCC(=O)OCCCCOc2no[n+]([O-])c2S(=O)(=O)c2ccccc2)[C@@H](C)CC)C[C@H]1C(=C)C
pIC50 [1]: 5.44 | pIC50 [2]: 5.37 | pIC50 [3]: 8.00 | Activity [4]: Active

C=C[C@]1(C)CC[C@@H](C(=C)COC(=O)CCC(=O)OCC#CCOc2no[n+]([O-])c2S(=O)(=O)c2ccccc2)C[C@H]1C(=C)C
pIC50 [1]: 5.30 | pIC50 [2]: 5.42 | pIC50 [3]: 7.07

From ChEMBL document CHEMBL4052635, “Discovery of novel antitumor nitric oxide-donating β-elemene hybrids through inhibiting the PI3K/Akt pathway” (Eur J Med Chem, 2017)
